# Measured values taken from ChEMBL document CHEMBL1149256, “Discovery of 4-aryl-4H-chromenes as a new series of apoptosis inducers using a cell- and caspase-based high-throughput screening assay. 1. Structure-activity relationships of the 4-aryl group” (J Med Chem, 2004).
# Active and inactive are the calls of the source. No cut-off for these calls is given here.
# Key:
# T47D [1] = assay: Induction of apoptosis in human T47D cells assessed as caspase activation after 24 hrs; assay type: functional, cell-based
# NCI-H1299 = assay: Induction of apoptosis in human H1299 cells assessed as caspase activation after 24 hrs; assay type: functional, cell-based; details: NCI-H1299, 24 h
# DLD-1 [2] = assay: Induction of apoptosis in human DLD1 cells assessed as caspase activation after 24 hrs; assay type: functional, cell-based; details: DLD-1, 24 h
# T47D [3] = assay: Antiproliferative activity against human T47D cells after 48 hrs by MTT assay; assay type: functional
# DLD-1 [4] = assay: Ratio of GI50 for human DLD1 cells to EC50 for human DLD1 cells; assay type: functional
# T47D [5] = assay: Ratio of GI50 for human T47D cells to EC50 for human T47D cells; assay type: functional
# DLD-1 [6] = assay: Antiproliferative activity against human DLD1 cells after 48 hrs by MTT assay; assay type: functional; details: DLD-1, 48 h
# Tubulin [7] = assay: Displacement of [3H]colchicine from tubulin; assay type: protein-complex assay, Homo sapiens
# Jurkat [8] = assay: Induction of apoptosis in Jurkat cells assessed as PARP cleavage at 1 uM after 30 hrs; assay type: functional, cell-based; details: Homo sapiens
# Jurkat [9] = assay: Induction of caspase-mediated apoptosis in Jurkat cells at 0.1 uM after 24 hrs by nuclear fragmentation assay; assay type: functional, cell-based; details: Homo sapiens
# T47D [10] = assay: Induction of apoptosis in human T47D cells assessed as accumulation at S phase at 0.1 uM after 48 hrs; assay type: functional
# T47D [11] = assay: Induction of apoptosis in human T47D cells assessed as accumulation at subG1 phase at 0.1 uM after 48 hrs; assay type: functional
# Jurkat [12] = assay: Induction of apoptosis in Jurkat cells assessed as PARP cleavage at 2.5 uM; assay type: functional, cell-based; details: Homo sapiens, TDE = time-dependent effect
# T47D [13] = assay: Induction of apoptosis in human T47D cells assessed as accumulation at G2/M phase at 0.1 uM after 48 hrs; assay type: functional
# T47D [14] = assay: Induction of apoptosis in human T47D cells assessed as accumulation at G1 phase at 0.1 uM after 48 hrs; assay type: functional
# T47D [15] = assay: Induction of apoptosis in human T47D cells assessed as accumulation at subG1 phase at 0.1 uM after 24 hrs; assay type: functional
# T47D [16] = assay: Induction of apoptosis in human T47D cells assessed as accumulation at G2/M phase at 0.1 uM after 24 hrs; assay type: functional
# T47D [17] = assay: Induction of apoptosis in human T47D cells assessed as accumulation at S phase at 0.1 uM after 24 hrs; assay type: functional
# Tubulin [18] = assay: Inhibition of tubulin polymerization; assay type: protein-complex assay, Homo sapiens
# T47D [19] = assay: Induction of apoptosis in human T47D cells assessed as accumulation at G1 phase at 0.1 uM after 24 hrs; assay type: functional
Compound,EC50 (T47D [1]) [nM],EC50 (NCI-H1299) [nM],EC50 (DLD-1 [2]) [nM],further results
CN(C)c1ccc2c(c1)OC(N)=C(C#N)C2c1cccc(C#N)c1 (centres undefined),63,215,82,
COc1cc(C2(C)C(C#N)=C(N)Oc3cc(N(C)C)ccc32)cc(Br)c1OC (centres undefined),7300,7800,10400,
CN(C)c1ccc2c(c1)OC(N)=C(C#N)C2c1cnc2ccccc2c1 (centres undefined),1820,2230,2740,
COc1cccc(C2C(C#N)=C(N)Oc3cc(N(C)C)ccc32)c1 (centres undefined),65,200,81,
CC[C@]1(O)C[C@@H]2CN(CCc3c([nH]c4ccccc34)[C@@](C(=O)OC)(c3cc4c(cc3OC)N(C)[C@H]3[C@@](O)(C(=O)OC)[C@H](OC(C)=O)[C@]5(CC)C=CCN6CC[C@]43[C@@H]65)C2)C1 [VINBLASTINE],25,73,129,
COc1cc(Br)cc(C2C(C#N)=C(N)Oc3cc(N(C)C)ccc32)c1 (centres undefined),31,63,125,
CN(C)c1ccc2c(c1)OC(N)=C(C#N)C2c1cc(Br)cs1 (centres undefined),150,240,160,
COc1cc(C2C(C#N)=C(N)Oc3cc(N(C)C)ccc32)cc(Cl)c1OC (centres undefined),18,36,65,
CN(C)c1ccc2c(c1)OC(N)=C(C#N)C2c1cccc(F)c1 (centres undefined),81,304,129,
CN(C)c1ccc2c(c1)OC(N)=C(C#N)C2c1cccs1 (centres undefined),200,300,270,
COc1cc(C2C(C#N)=C(N)Oc3cc(N(C)C)ccc32)cc(Br)c1O (centres undefined),41,144,64,
CN(C)c1ccc2c(c1)OC(N)=C(C#N)C2c1cccc(Cl)c1 (centres undefined),112,514,158,
COc1cc(OC)c(C2C(C#N)=C(N)Oc3cc(N(C)C)ccc32)cc1OC (centres undefined),1770,2290,3240,
CN(C)c1ccc2c(c1)OC(N)=C(C#N)C2c1cccc(C(=O)O)c1 (centres undefined),> 10000,> 10000,> 10000,
CN(C)c1ccc2c(c1)OC(N)=C(C#N)C2c1cc(Br)c2c(c1)OCO2 (centres undefined),245,754,293,GI50 (T47D [3]): 605 nM; Ratio GI50/EC50 (DLD-1 [4]): 2.5; Ratio GI50/EC50 (T47D [5]): 2.5; GI50 (DLD-1 [6]): 735 nM
CN(C)c1ccc2c(c1)OC(N)=C(C#N)C2c1ccncc1 (centres undefined),381,855,780,
COc1ccccc1C1C(C#N)=C(N)Oc2cc(N(C)C)ccc21 (centres undefined),280,560,330,
COc1cc(C2C(C#N)=C(N)Oc3cc(N(C)C)ccc32)cc(I)c1OC (centres undefined),18,34,64,
COc1cc(C2C(C#N)=C(N)Oc3cc(N(C)C)ccc32)cc(Br)c1OC (centres undefined),,,,IC50 (Tubulin [7]): 8000 nM
CN(C)c1ccc2c(c1)OC(N)=C(C#N)C2c1cccc(O)c1 (centres undefined),272,959,532,

Compound,EC50 (T47D [1]) [nM],EC50 (NCI-H1299) [nM],EC50 (DLD-1 [2]) [nM],further results
CN(C)c1ccc2c(c1)OC(N)=C(C#N)C2c1cc(Cl)cc(Cl)c1 (centres undefined),76,233,242,
Cc1cncc(C2C(C#N)=C(N)Oc3cc(N(C)C)ccc32)c1 (centres undefined),11,27,18,
Cc1cccc(C2C(C#N)=C(N)Oc3cc(N(C)C)ccc32)c1 (centres undefined),134,420,168,
CN[C@@H]1C[C@H]2O[C@@](C)([C@@H]1OC)n1c3ccccc3c3c4c(c5c6ccccc6n2c5c31)C(=O)NC4,,,,Activity (Jurkat [8]): Active
CN(C)c1ccc2c(c1)OC(N)=C(C#N)C2c1ccccn1 (centres undefined),465,1430,959,
COc1ccc(C2C(C#N)=C(N)Oc3cc(N(C)C)ccc32)cc1 (centres undefined),1600,2000,2600,
CN(C)c1ccc2c(c1)OC(N)=C(C#N)C2c1cccc(Br)c1 (centres undefined),64,337,87,
COc1ccc(C2C(C#N)=C(N)Oc3cc(N(C)C)ccc32)c(OC)c1OC (centres undefined),3160,3740,5090,
Cc1cccc(C2C(C#N)=C(N)Oc3cc(N(C)C)ccc32)n1 (centres undefined),244,622,438,
CCCCCCCCCCCCOc1cccc(C2C(C#N)=C(N)Oc3cc(N(C)C)ccc32)c1 (centres undefined),> 10000,> 10000,> 10000,
CN(C)c1ccc2c(c1)OC(N)=C(C#N)C2CCc1ccccc1 (centres undefined),430,1080,590,
COc1cc2c(c(OC)c1OC)-c1ccc(OC)c(=O)cc1[C@@H](NC(C)=O)CC2 [COLCHICINE],,34,,
COc1cc(C2C(C#N)=C(N)Oc3cc(N(C)C)ccc32)cc2c1OCO2 (centres undefined),,,83,Activity (Jurkat [9]): Active; Activity (T47D [10]): 18.8%; Activity (T47D [11]): 12%; Activity (Jurkat [12]): tde; Activity (T47D [13]): 57%; Activity (T47D [14]): 11%; Activity (T47D [15]): 4.3%; Activity (T47D [16]): 44%; Activity (T47D [17]): 7.6%; IC50 (Tubulin [18]): 400 nM; Activity (T47D [19]): 43.5%
CN(C)c1ccc2c(c1)OC(N)=C(C#N)C2c1cccnc1 (centres undefined),68,155,123,
CC(=O)O[C@H]1C(=O)[C@@]2(C)[C@H]([C@H](OC(=O)c3ccccc3)[C@]3(O)C[C@H](OC(=O)[C@H](O)[C@@H](NC(=O)c4ccccc4)c4ccccc4)C(C)=C1C3(C)C)[C@]1(OC(C)=O)CO[C@@H]1C[C@@H]2O [PACLITAXEL],30,163,75,
CN(C)c1ccc2c(c1)OC(N)=C(C#N)C2c1cccc(OC(F)(F)F)c1 (centres undefined),450,1140,457,
CN(C)c1ccc2c(c1)OC(N)=C(C#N)C2c1cncc(Br)c1 (centres undefined),33,46,26,
COc1cccc(C2C(C#N)=C(N)Oc3cc(N(C)C)ccc32)c1OC (centres undefined),1020,2130,1270,
COc1ccc(C2C(C#N)=C(N)Oc3cc(N(C)C)ccc32)cc1OC (centres undefined),253,510,347,
